Measurements as given in publication PMC11201061, “Mechanistic Study of Antimicrobial Effectiveness of Cyclic Amphipathic Peptide [R4W4] against Methicillin-Resistant Staphylococcus aureus Clinical Isolates” (Antibiotics, 2024).
≈ marks a conversion by molar mass, not a printed value. Structures can show the parent of a compound that is named as a salt. Where two headings read alike, the source gives them in different places. Where a SMILES comes first, the peptide text is derived from it.

How the values were obtained:
C. difficile 9689 = test: microbe, parasite or virus in culture; format: cell-based, Clostridioides difficile; conditions: for MBC/MIC: C. difficile ATCC 9689, stool isolate
Protocol: To determine whether the antibacterial activity of [R4W4] is bacteriostatic or bactericidal against clinical isolates of multidrug-resistant bacterial isolates, MIC and MBC were determined using the microbroth dilution method. Bacteriostatic activity was defined as a ratio of the MBC/MIC greater than four and bactericidal activity as MBC/MIC ratio ≤ 4 [33]. We added aliquots of test samples (256 μg/mL concentration of [R4W4] or vancomycin as a control prepared in TSB) to the first well of microplates. MHB media was added to the remaining wells. Two-fold serial dilutions were performed, starting with the highest drug concentration in well 1, and the dilution process continued. A bacterial aliquot of 1/150 dilution was prepared with a 0.5 McFarland standard solution from an overnight culture of the tested bacteria isolate. Bacteria were added to the microplate and placed into wells with the drug dilutions. The microplates were incubated overnight for 24 h at 37 °C. [R4W4] was synthesized and purified, as reported earlier.

MRSA USA300 [1] = test: microbe, parasite or virus in culture; conditions: for MIC: Staphylococcus aureus
Protocol: The interaction of [R4W4], melittin, and vancomycin with LTA in the presence of MRSA was determined using a microbroth dilution assay. Two-fold serial dilution was used to achieve a 100 μL final concentration of the antibacterial agents in a 96 microplate well. A 360 μL S. aureus LTA (Sigma Aldrich stock 5 mg/mL) was added to 17.64 mL MHB containing MRSA (5 x 10^5 CFU/mL) to achieve the final concentration of S. aureus LTA 100 μg/mL. Then, 100 μL aliquots of MHB (MRSA (5 × 10^5 CFU/mL) and 100 μg/mL S. aureus LTA) were added to the 96 microtiter wells containing the antibacterial agents. The microplate was incubated overnight at 37 °C to obtain the MICs. Controls were bacteria grown in the presence of LTA alone and in MHB alone.

MRSA USA300 [2] = test: Membrane depolarization assay with DisC3(5); format: cell-based, Staphylococcus aureus
Protocol: Buffer A (5 mM HEPE and 5 mM glucose) and Buffer B (5 mM HEPE, 5 mM glucose, and 0.2 mM EDTA) solutions were prepared and filtered using 0.2 μm filters. Bacteria strains (MRSA and E. coli) from a −80 °C freezer were inoculated on an agar plate overnight. Two to three colonies of each bacteria strain were inoculated in 8 mL Cation-Adjusted Muller-Hinton Broth (CAMHB) and allowed to grow overnight. The overnight grown MRSA or E. coli bacteria was diluted with a fresh CAMHB (1:100) and incubated at 37 °C for 5 h with shaking at 220 rpm. The resulting bacteria cells at the growth phase were centrifuged at 3700× g at 4 °C for 10 min. The bacteria pellets were washed three times with buffer A and then resuspended in buffer A to an OD600nm of 0.05.
On the other hand, E. coli was resuspended in buffer B to an OD600nm of 0.05 to facilitate fluorescence dye DSC5 uptake. Then, 20 mL of each bacteria suspension was mixed with 10 μL of 100 μM dye in a dark place for 45 min. After incubation, potassium chloride was added to the two bacteria suspensions to a final concentration. […] The fluorescence intensity was measured at excitation and emission wavelengths of 622 nm and 670 nm, respectively.

MRSA LAC USA300 = test: Surface charge neutralization by zeta potential; format: cell-based, Staphylococcus aureus; conditions: for zeta potential of MRSA after treatment: agent at 16 μg/mL (4 × MIC of [R4W4]), HEPES pH 7.4, 150 mM NaCl, 25 °C, mean of triplicate, untreated −31 ± 0.88 mV
Protocol: Stock cultures of the MRSA strain from −80 °C were inoculated on MHB agar plates at 37 °C overnight. Two isolated colonies were inoculated in 6 mL MHB broth and allowed to grow overnight with shaking at 225 rpm. A 100 µL bacteria aliquot was added to a 5 mL fresh MHB, and the suspension was incubated to grow for 2 h at 37 °C to achieve a final bacteria concentration of ~3 × 10^8 CFU/mL as (A 600 ~0.1). The bacterial suspension was diluted using fresh MHB to 3 × 10^5 CFU/mL. The bacterial suspension was centrifuged at 11,400× g for 10 min and washed twice using 10 mM HEPES buffer, pH 7.4, containing 150 mM NaCl (normal saline).
An amount of 100 µLs of test samples was added to 900 µL of the bacterial aliquots using a positive buffer without test samples.
Meanwhile, the Malvern Zetasizer Nano was set to read samples at 25 °C. The bacterial suspension was dispensed into disposable zeta cells with gold electrodes and allowed to equilibrate for 15 min at 25 °C. The zeta potential value for each sample was calculated from the measured value of electrophoretic mobility using the Smuluchowski equation.

in vitro = conditions: human, 100% human plasma
Protocol: At the end of incubation at each of the time points, acetonitrile was added to the incubation mixture, followed by centrifugation. Samples were analyzed by HPLC-MS/MS, and peak areas were recorded for each analyte. The area of precursor compound remaining after each time point relative to the amount remaining at time zero, expressed as percent, is calculated. Subsequently, the half-life (T1/2) is estimated from the slope of the initial linear range of the logarithmic curve of the compound remaining (%) versus time, assuming first-order kinetics. The plasma stability experiment was performed at Eurofins Inc. (San Diego, CA, USA) [56].

MRSA LAC = test: Thermal stability by MIC after heat exposure; format: cell-based, Staphylococcus aureus; conditions: [R4W4] stock exposed to 25, 50, 75 and 100 °C (10 min), then microbroth dilution
Protocol: As per temperature sensitivity, the [R4W4] stock solution (1.15 mg/mL) in a 2 mL Eppendorf microtube was exposed to 100 °C for 10 min. After the thermal exposure, the [R4W4] antibacterial effectiveness was evaluated against MRSA using a microbroth dilution assay, as explained above.

MRSA USA300 [3] = test: Checkered board synergy assay with gentamicin; format: cell-based, Staphylococcus aureus
Protocol: An amount of 100 µL of [R4W4] peptide test solution at a final concentration of 512 µg/mL was added to each well A-G column 1 in plate A using a multi-channel pipette. A 50 µL MH Broth was added to micro-plate well A-G columns 2–9. Using a multi-channel pipette, a two-fold serial dilution was performed by removing 50 µL solution from column 1 and was added to column 2 with thorough mixing. The micro-pipette was discarded after each transfer. The last portion after column 9 was discarded. In another microplate, 100 µL MHB was added to well B-G columns 1–11 using a multi-channel pipette. A 200 µL gentamicin test solution 512 µg/mL was added to row A, columns 1–11. A two-fold serial dilution was performed by removing 100 µL from rows A to B. The last portion was discarded. Using eight multi-channel pipettes, 50 µL of gentamicin test solution was transferred in the ordinate column A-G row 1 to the first microplate. The plate was incubated at 37 °C for 18–24 h. The fractional inhibitory concentration (FIC) of the antibacterial agents and the fractional inhibitory concentration index (FICI) of the two antibacterial agents were determined to evaluate the synergistic interaction. The FICI was interpreted as follows: FICI ≤ 0.5, synergy; 0.5 < FICI ≤ 1, partial synergy; 1 ≤ FICI < 4, additive effect or indifference; 4 ≤ FICI antagonism and calculated from the mean values from multiple experiments.

Row | Structure (SMILES) | MBC/MIC (C. difficile 9689) | MBC (C. difficile 9689; Clostridioides difficile, ATCC9689) [µg/mL] | MIC (C. difficile 9689; Clostridioides difficile, ATCC9689, 24 h) [µg/mL] | MIC (MRSA USA300 [1]; read-out: MIC in the absence of LTA) [µg/mL] | MIC (MRSA USA300 [1]; read-out: MIC in the presence of LTA) [µg/mL] | DisC3(5) fluorescence versus control (MRSA USA300 [2]; controls at 100 µg/mL) | zeta potential of MRSA after treatment (MRSA LAC USA300) [mV] | half-life at 1 µM (in vitro) [h] | MBC (C. difficile 9689; 9689, 24 h) [µg/mL] | MIC (C. difficile 9689; 9689, 24 h) [µg/mL] | MIC in the presence of LTA (MRSA USA300 [1]; MRSA USA300, 100 μg/mL S. aureus LTA in MHB, overnight 37 °C, duplicate) [µg/mL] | MIC in the absence of LTA (MRSA USA300 [1]; MRSA USA300, MHB, overnight 37 °C, duplicate) [µg/mL] | MIC after thermal exposure (MRSA LAC) [µg/mL] | MIC(A+B) ([R4W4] in combination with gentamicin) (MRSA USA300 [3]; MRSA USA300, checkered board) [µg/mL] | MICA ([R4W4] alone) (MRSA USA300 [3]; MRSA USA300, checkered board, 37 °C, 18–24 h, mean values from multiple experiments) [µg/mL] | FICA (MRSA USA300 [3]; MRSA USA300, fractional inhibitory concentration of [R4W4]) | reduction in MIC value in combination (MRSA USA300 [3]; MRSA, [R4W4] + gentamicin combination versus alone) [fold] | DisC3(5) fluorescence (membrane depolarization) (MRSA USA300 [2]; [R4W4] at 2 × MIC) | DisC3(5) fluorescence (membrane depolarization) (MRSA USA300 [2]; [R4W4] at 16 × MIC) | concentration required to achieve neutralization of negative surface charge (MRSA LAC USA300; 2 × MIC) [µg/mL]
1 | CN[C@H](CC(C)C)C(=O)N[C@H]1C(=O)N[C@@H](CC(N)=O)C(=O)N[C@H]2C(=O)N[C@H]3C(=O)N[C@H](C(=O)N[C@H](C(=O)O)c4cc(O)cc(O)c4-c4cc3ccc4O)[C@H](O)c3ccc(c(Cl)c3)Oc3cc2cc(c3O[C@@H]2O[C@H](CO)[C@@H](O)[C@H](O)[C@H]2O[C@H]2C[C@](C)(N)[C@H](O)[C@H](C)O2)Oc2ccc(cc2Cl)[C@H]1O [Vancomycin, Vancomycin Hydrochloride, reference compound] | 2 | 1 | 0.5 | 2 | 2 | no significant difference | −33.03 |  |  |  |  |  |  |  |  |  |  |  |  | 
2 | N=C(N)NCCC[C@@H]1NC(=O)[C@H](CCCNC(=N)N)NC(=O)[C@H](CCCNC(=N)N)NC(=O)[C@H](Cc2c[nH]c3ccccc23)NC(=O)[C@H](Cc2c[nH]c3ccccc23)NC(=O)[C@H](Cc2c[nH]c3ccccc23)NC(=O)[C@H](Cc2c[nH]c3ccccc23)NC(=O)[C@H](CCCNC(=N)N)NC1=O [[R4W4]] (cyclo(RRRRWWWW)) | 2 |  |  |  |  |  | −8.37 | ~1.43 | 4 (≈ 2.92 µM) | 2 (≈ 1.46 µM) | 8 | 8 | 4 (≈ 2.92 µM) | 1.5 | 6 | 0.25 | 4 | fluorescence decreases below that of vancomycin and control | enhanced fluorescence signal that surpassed that of nisin | 8
